Laboratory results reported in paper PMC5395518, “Design, synthesis, and biological evaluation of the novel glycyrrhetinic acid-cinnamoyl hybrids as anti-tumor agents” (Chemistry Central Journal, 2016).

Legend:
HepG2 cells = test: MTT cytotoxicity assay, HepG2; format: cell-based, human; conditions: mean ± SD (n = 3)
Source text: (§1) HepG2 (human hepatocellular carcinoma), Hela (human cervical cancer), HT-29 (human colon carcinoma), MDCK (Madin–Darby canine kidney), H9C2 (rat myocardial cells) and HY926 were purchased from the Chinese Academy of Medical Sciences and Peking Union Medical College. All of these cell lines were maintained in RPMI-1640 (DMEM) supplemented with 10% (v/v) fetal bovine serum (FBS) and 1% (v/v) penicillin/streptomycin (Thermo Technologies, New York, NY, USA) under a humidified atmosphere containing 5% CO2 at 37 °C. To provide stock solutions which were used to prepare various concentrations of treatment media, GA and hybrids were added a volume of DMSO.
(§2) The cytotoxicity of these compounds was evaluated on three human cancer cell lines (HepG2, HT-29, Hela) and three non-tumor cells lines (MDCK, HY926, H9C2) and MTT assay was performed to detect the cell proliferation. Simply, exponentially growing cells were cultured in 96-well plates (3 × 10^3 cells/well). And the plates were placed in a humidified atmosphere for 72 h at 37 °C with 5% CO2. After added MTT solution (5 mg/mL) 20 μL to each well, the plate was incubated for a further 4 h. Then the cell supernatant was removed and 150 μL DMSO was added. Finally, the absorbance was determined at wavelength of 490 nm with the ELISA. Wells without drugs were used to be blanks. The IC50 values were calculated using Logit-method. The following Eq. (1) was proposed to calculate the inhibitory rate of cell growth:1 %inhibition=1-Sample group OD/Control group OD×100%

HY926 cells = test: MTT cytotoxicity assay, HY926 (non-tumor); format: cell-based; conditions: MTT, 72 h, mean ± SD (n = 3), non-tumor cells
Source text: as §1, §2

MDCK cells = test: MTT cytotoxicity assay, MDCK (non-tumor); format: cell-based, canine; conditions: MTT, 72 h, mean ± SD (n = 3), non-tumor cells
Source text: as §1, §2

H9C2 cells = test: MTT cytotoxicity assay, H9C2 (non-tumor); format: cell-based, rat; conditions: MTT, 72 h, mean ± SD (n = 3), non-tumor cells
Source text: as §1, §2

Hela cells = test: MTT cytotoxicity assay, Hela; format: cell-based, human; conditions: MTT, 72 h, mean ± SD (n = 3)
Source text: as §1, §2

HT-29 cells = test: MTT cytotoxicity assay, HT-29; format: cell-based, human; conditions: mean ± SD (n = 3)
Source text: as §1, §2

Structure (SMILES)	IC50 (HepG2 cells; 72 h) [µM]	IC50 (HY926 cells) [µM]	IC50 (MDCK cells) [µM]	IC50 (H9C2 cells) [µM]	IC50 (Hela cells) [µM]	IC50 (HT-29 cells; 72 h) [µM]	IC50 (HY926 cells; listed as DDP) [µM]	IC50 (MDCK cells; listed as DDP) [µM]	IC50 (H9C2 cells; listed as DDP) [µM]	IC50 (HepG2 cells; Homo sapiens, HepG2, 72 h) [µM]	IC50 (MDCK cells; Canis lupus familiaris, MDCK) [µM]	IC50 (H9C2 cells; Rattus norvegicus, H9c2) [µM]	IC50 (Hela cells; Homo sapiens, HeLa) [µM]	IC50 (HT-29 cells; Homo sapiens, HT-29, 72 h) [µM]
CC1(C)[C@@H](OC(=O)/C=C/c2ccccc2)CC[C@]2(C)[C@H]3C(=O)C=C4[C@@H]5C[C@@](C)(C(=O)O)CC[C@]5(C)CC[C@@]4(C)[C@]3(C)CC[C@@H]12 [Compound 1a, Cinnamoyl-3β-hydroxy-11-oxoolean-12-en-30-oic acid]	24.4 ± 1.39	28.9 ± 1.85	22.6 ± 1.38	46.1 ± 2.01	23.7 ± 2.98	22.3 ± 1.75								
CC1(C(=O)O)CCC2(C)CCC3(C)C(=CC(=O)C4C5(C)CCC(OC(=O)CCc6ccccc6)C(C)(C)C5CCC43C)C2C1 (stereo not drawn) [Compound 1b, Phenylpropanoyl-3β-hydroxy-11-oxoolean-12-en-30-oic acid]	32.3 ± 1	33.6 ± 3.09	33.3 ± 2.98	> 50	26.9 ± 1.74	28.6 ± 2.99								
Cc1ccc(/C=C/C(=O)OC2CCC3(C)C(CCC4(C)C3C(=O)C=C3C5CC(C)(C(=O)O)CCC5(C)CCC34C)C2(C)C)cc1 (stereo not drawn) [Compound 2a, (4-Methyl) cinnamoyl-3β-hydroxy-11-oxoolean-12-en-30-oic acid]	22.1 ± 1.18	27.6 ± 1.84	38 ± 1.81	> 50	14.2 ± 1.1	21.7 ± 1.81								
COc1cccc(CCC(=O)OC2CCC3(C)C(CCC4(C)C3C(=O)C=C3C5CC(C)(C(=O)O)CCC5(C)CCC34C)C2(C)C)c1OC (stereo not drawn) [Compound 2b, (2,3-Dimethoxy) phenylpropanoyl-3β-hydroxy-11-oxoolean-12-en-30-oic acid]	33.1 ± 2.09	> 50	41.3 ± 1.48	45.8 ± 1.8	23.1 ± 2.33	29.3 ± 2.22								
COc1ccccc1/C=C/C(=O)OC1CCC2(C)C(CCC3(C)C2C(=O)C=C2C4CC(C)(C(=O)O)CCC4(C)CCC23C)C1(C)C (stereo not drawn) [Compound 3a, (2-Methoxy) cinnamoyl-3β-hydroxy-11-oxoolean-12-en-30-oic acid]	32 ± 1.9	> 50	22.9 ± 2.43	> 50	24.6 ± 1.72	22.2 ± 2.34								
COc1ccc(CCC(=O)O[C@H]2CC[C@]3(C)[C@H]4C(=O)C=C5[C@@H]6C[C@@](C)(C(=O)O)CC[C@]6(C)CC[C@@]5(C)[C@]4(C)CC[C@H]3C2(C)C)c(OC)c1OC [Compound 3b, (2,3,4-Trimethoxy) phenylpropanoyl-3β-hydroxy-11-oxoolean-12-en-30-oic acid]	27.3 ± 1.95	38.5 ± 2.02	> 30	> 50	22.5 ± 2.16	26.2 ± 1.24								
COc1cccc(/C=C/C(=O)OC2CCC3(C)C(CCC4(C)C3C(=O)C=C3C5CC(C)(C(=O)O)CCC5(C)CCC34C)C2(C)C)c1 (stereo not drawn) [Compound 4a, (3-Methoxy) cinnamoyl-3β-hydroxy-11-oxoolean-12-en-30-oic acid]	12.7 ± 1.1	31 ± 1.87	22.2 ± 2.56	> 50	17.5 ± 1.52	14.9 ± 1.8								
COc1cc(CCC(=O)OC2CCC3(C)C(CCC4(C)C3C(=O)C=C3C5CC(C)(C(=O)O)CCC5(C)CCC34C)C2(C)C)cc(OC)c1OC (stereo not drawn) [Compound 4b, (3,4,5-Trimethoxy) phenylpropanoyl-3β-hydroxy-11-oxoolean-12-en-30-oic acid]	22.4 ± 1.29	> 50	> 30	> 50	28.7 ± 1.68	22.4 ± 1.2								
COc1ccc(C=CC(=O)OC2CCC3(C)C(CCC4(C)C3C(=O)C=C3C5CC(C)(C(=O)O)CCC5(C)CCC34C)C2(C)C)cc1 (stereo not drawn) [Compound 5a, (4-Methoxy) cinnamoyl-3β-hydroxy-11-oxoolean-12-en-30-oic acid]	31.2 ± 1.34	> 50	21.7 ± 1.01	36.1 ± 1.92	23.4 ± 1.38	33 ± 1.92								
COc1cccc(/C=C/C(=O)OC2CCC3(C)C(CCC4(C)C3C(=O)C=C3C5CC(C)(C(=O)O)CCC5(C)CCC34C)C2(C)C)c1OC (stereo not drawn) [Compound 6a, (2,3-Dimethoxy) cinnamoyl-3β-hydroxy-11-oxoolean-12-en-30-oic acid]	24.4 ± 1.44	25 ± 1.38	33.7 ± 1.4	> 50	22.5 ± 2.08	24.4 ± 1.76								
COc1ccc(OC)c(/C=C/C(=O)OC2CCC3(C)C(CCC4(C)C3C(=O)C=C3C5CC(C)(C(=O)O)CCC5(C)CCC34C)C2(C)C)c1 (stereo not drawn) [Compound 7a, (2,5-Dimethoxy) cinnamoyl-3β-hydroxy-11-oxoolean-12-en-30-oic acid]	25.4 ± 1.97	45.1 ± 2.25	> 50	> 50	28 ± 1.63	26.4 ± 1.96								
COc1cc(/C=C/C(=O)O[C@H]2CC[C@]3(C)[C@H]4C(=O)C=C5[C@@H]6C[C@@](C)(C(=O)O)CC[C@]6(C)CC[C@@]5(C)[C@]4(C)CC[C@H]3C2(C)C)cc(OC)c1OC [Compound 9a, (3,4,5-Trimethoxy) cinnamoyl-3β-hydroxy-11-oxoolean-12-en-30-oic acid]	21.9 ± 1.41	30.8 ± 1.37	27.7 ± 1.08	47.4 ± 1.07	30.7 ± 1.89	25.5 ± 1.29								
N.N.[Cl][Pt][Cl] [DPP, cisplatin, reference compound]	4.57 ± 0.85	5.12 ± 0.71	9.97 ± 1.12	5.31 ± 0.26	3.76 ± 0.38	5.28 ± 0.74	< 10	< 10	< 10					
CC1(C)[C@@H](O)CC[C@]2(C)[C@H]3C(=O)C=C4[C@@H]5C[C@@](C)(C(=O)O)CC[C@]5(C)CC[C@@]4(C)[C@]3(C)CC[C@@H]12 [GA, Glycyrrhetinic acid]		> 100								> 50	> 100	> 100	> 50	> 50
